According to ChEMBL document CHEMBL1201862, “PubChem BioAssay data set” (2004):
Activity calls are given as the source filed them. For most assays here, no stated cut-off is given here; in the data, actives have a measured IC50 and inactives only a lower limit.

Assays:
[1] = viability of uninfected HEp-2 cells – cell-based, HTS, cytotoxicity control for RSV inhibitor project, dose response (AID 2410); assay type: functional; conditions: human respiratory syncytial virus
[2] = target: T1, Voltage-gated N-type calcium channel alpha-1B subunit/Amyloid beta A4 precursor protein-binding family A member 1 (Homo sapiens, UniProt Q00975+Q02410); assay type: protein assay
[3] = target: T2, Tyrosine-protein phosphatase non-receptor type 22 (Homo sapiens, UniProt Q9Y2R2); experiment: SAR LYP1 Fluorescent Assay using OMFP substrate for In Vitro dose response studies - Set 3. [Related pubchem assays (depositor defined):AID1779, AID1784, AID2140, AID2686]; assay type: functional
T2 sequence (Q9Y2R2 whole entry): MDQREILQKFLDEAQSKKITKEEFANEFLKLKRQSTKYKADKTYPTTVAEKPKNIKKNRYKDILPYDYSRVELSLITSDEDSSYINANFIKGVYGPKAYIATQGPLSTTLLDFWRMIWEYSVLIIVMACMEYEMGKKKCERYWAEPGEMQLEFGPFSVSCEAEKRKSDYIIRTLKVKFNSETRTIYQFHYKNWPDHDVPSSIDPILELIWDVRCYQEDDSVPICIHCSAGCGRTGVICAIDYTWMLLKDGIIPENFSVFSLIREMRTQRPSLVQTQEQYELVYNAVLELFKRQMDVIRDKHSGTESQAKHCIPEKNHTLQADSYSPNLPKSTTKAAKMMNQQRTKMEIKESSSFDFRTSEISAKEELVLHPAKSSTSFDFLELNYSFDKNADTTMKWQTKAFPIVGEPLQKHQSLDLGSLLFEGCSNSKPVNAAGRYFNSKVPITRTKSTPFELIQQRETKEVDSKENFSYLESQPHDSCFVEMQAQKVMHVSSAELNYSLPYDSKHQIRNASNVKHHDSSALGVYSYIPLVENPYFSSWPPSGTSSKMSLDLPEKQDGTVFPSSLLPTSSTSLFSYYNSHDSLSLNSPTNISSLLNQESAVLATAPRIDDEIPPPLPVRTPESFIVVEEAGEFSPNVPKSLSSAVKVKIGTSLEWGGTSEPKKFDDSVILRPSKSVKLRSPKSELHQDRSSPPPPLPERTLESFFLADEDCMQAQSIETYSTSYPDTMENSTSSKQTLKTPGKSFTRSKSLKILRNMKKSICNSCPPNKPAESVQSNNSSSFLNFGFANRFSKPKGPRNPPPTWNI

[4] = target: T3, Tyrosine-protein phosphatase non-receptor type 7 (Homo sapiens, UniProt P35236); assay type: functional
T3 sequence (P35236 whole entry): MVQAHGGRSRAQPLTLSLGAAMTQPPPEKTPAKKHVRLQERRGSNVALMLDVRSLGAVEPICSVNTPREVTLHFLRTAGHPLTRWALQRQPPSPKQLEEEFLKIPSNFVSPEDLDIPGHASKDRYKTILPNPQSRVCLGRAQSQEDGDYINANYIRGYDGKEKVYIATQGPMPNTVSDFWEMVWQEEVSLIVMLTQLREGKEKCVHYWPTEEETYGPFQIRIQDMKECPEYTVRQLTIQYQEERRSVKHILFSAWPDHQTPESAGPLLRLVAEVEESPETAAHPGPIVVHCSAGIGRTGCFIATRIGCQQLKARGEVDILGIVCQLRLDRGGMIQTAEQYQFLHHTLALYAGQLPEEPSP

[5] = target: T2, Tyrosine-protein phosphatase non-receptor type 22; experiment: SAR LYP1 Fluorescent Assay using OMFP substrate for In Vitro dose response studies - Set 2. [Related pubchem assays (depositor defined):AID1779, AID1784, AID2140, AID449726, AID488869]; assay type: functional
[6] = target: T3, Tyrosine-protein phosphatase non-receptor type 7; experiment: inhibition of hematopoietic tyrosine phosphatase HePTP – biochemical, set 2, SAR follow-up (AID 449736); assay type: functional
[7] = target: T2, Tyrosine-protein phosphatase non-receptor type 22; experiment: SAR LYP1 Fluorescent Assay using pCAP substrate for In Vitro dose response studies - Set 2. [Related pubchem assays (depositor defined):AID1779, AID1784, AID2135, AID449727]; assay type: functional
[8] = target: T2, Tyrosine-protein phosphatase non-receptor type 22; experiment: PTPN22 lymphoid phosphatase activity blockers – biochemical, fluorescence intensity, uHTS (AID 1779)
[9] = target: T2, Tyrosine-protein phosphatase non-receptor type 22; experiment: PubChem AID 2135
[10] = target: T2, Tyrosine-protein phosphatase non-receptor type 22; assay type: functional
[11] = target: T2, Tyrosine-protein phosphatase non-receptor type 22; experiment: LYP1 Fluorescent Assay using OMFP substrate for In Vitro dose response studies. [Related pubchem assays (depositor defined):AID1779, AID1784, AID435024]
[12] = target: T3, Tyrosine-protein phosphatase non-receptor type 7; experiment: HTS HePTP Fluorescent Assay using OMFP substrate for In Vitro dose response studies. [Related pubchem assays (depositor defined):AID1059, AID1077, AID1784, AID2068, AID2085, AID435032, AID521]; assay type: functional
[13] = target: T2, Tyrosine-protein phosphatase non-receptor type 22; assay type: functional; remark: listed apart in the source
[14] = target: T2, Tyrosine-protein phosphatase non-receptor type 22; experiment: PubChem AID 2140
[15] = target: T1, Voltage-gated N-type calcium channel alpha-1B subunit/Amyloid beta A4 precursor protein-binding family A member 1; assay type: protein assay; remark: listed apart in the source
[16] = target: Tyrosine-protein phosphatase non-receptor type 12 (Homo sapiens, UniProt Q05209); experiment: SAR Selectivity Analysis of small molecule inhibitors of PEST using pCAP in a fluorescence assay. [Related pubchem assays (depositor defined):AID1779, AID1784, AID2135]; assay type: functional
[17] = target: T2, Tyrosine-protein phosphatase non-receptor type 22; experiment: inhibition of lymphoid tyrosine phosphatase LYP – biochemical, pCAP fluorogenic substrate, fluorescence, set 3, SAR follow-up (AID 449727); assay type: functional
[18] = target: T4, Kappa-type opioid receptor (Homo sapiens, UniProt P41145); experiment: SAR analysis of small molecule antagonists of the kappa opioid receptor via a luminescent beta-arrestin assay - Set 4. [Related pubchem assays (depositor defined):AID1777, AID1778, AID1785, AID1786, AID1966, AID2133, AID2136, AID2285]; assay type: functional
[19] = target: T4, Kappa-type opioid receptor; experiment: SAR analysis of small molecule antagonists of the kappa opioid receptor via a luminescent beta-arrestin assay - Set 5. [Related pubchem assays (depositor defined):AID1778, AID1785]; assay type: functional

T4 sequence (P41145 whole entry): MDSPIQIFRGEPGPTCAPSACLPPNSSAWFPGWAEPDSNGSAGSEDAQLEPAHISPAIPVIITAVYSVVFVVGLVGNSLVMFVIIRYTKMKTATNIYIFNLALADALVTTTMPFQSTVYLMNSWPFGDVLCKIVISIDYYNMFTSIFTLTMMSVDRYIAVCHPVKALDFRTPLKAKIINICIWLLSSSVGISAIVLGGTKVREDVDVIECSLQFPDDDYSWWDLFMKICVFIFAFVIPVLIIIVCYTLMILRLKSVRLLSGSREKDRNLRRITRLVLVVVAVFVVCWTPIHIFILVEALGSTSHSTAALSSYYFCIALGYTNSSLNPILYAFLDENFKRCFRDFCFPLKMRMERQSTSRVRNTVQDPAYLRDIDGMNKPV
T1 sequence (Q00975 whole entry): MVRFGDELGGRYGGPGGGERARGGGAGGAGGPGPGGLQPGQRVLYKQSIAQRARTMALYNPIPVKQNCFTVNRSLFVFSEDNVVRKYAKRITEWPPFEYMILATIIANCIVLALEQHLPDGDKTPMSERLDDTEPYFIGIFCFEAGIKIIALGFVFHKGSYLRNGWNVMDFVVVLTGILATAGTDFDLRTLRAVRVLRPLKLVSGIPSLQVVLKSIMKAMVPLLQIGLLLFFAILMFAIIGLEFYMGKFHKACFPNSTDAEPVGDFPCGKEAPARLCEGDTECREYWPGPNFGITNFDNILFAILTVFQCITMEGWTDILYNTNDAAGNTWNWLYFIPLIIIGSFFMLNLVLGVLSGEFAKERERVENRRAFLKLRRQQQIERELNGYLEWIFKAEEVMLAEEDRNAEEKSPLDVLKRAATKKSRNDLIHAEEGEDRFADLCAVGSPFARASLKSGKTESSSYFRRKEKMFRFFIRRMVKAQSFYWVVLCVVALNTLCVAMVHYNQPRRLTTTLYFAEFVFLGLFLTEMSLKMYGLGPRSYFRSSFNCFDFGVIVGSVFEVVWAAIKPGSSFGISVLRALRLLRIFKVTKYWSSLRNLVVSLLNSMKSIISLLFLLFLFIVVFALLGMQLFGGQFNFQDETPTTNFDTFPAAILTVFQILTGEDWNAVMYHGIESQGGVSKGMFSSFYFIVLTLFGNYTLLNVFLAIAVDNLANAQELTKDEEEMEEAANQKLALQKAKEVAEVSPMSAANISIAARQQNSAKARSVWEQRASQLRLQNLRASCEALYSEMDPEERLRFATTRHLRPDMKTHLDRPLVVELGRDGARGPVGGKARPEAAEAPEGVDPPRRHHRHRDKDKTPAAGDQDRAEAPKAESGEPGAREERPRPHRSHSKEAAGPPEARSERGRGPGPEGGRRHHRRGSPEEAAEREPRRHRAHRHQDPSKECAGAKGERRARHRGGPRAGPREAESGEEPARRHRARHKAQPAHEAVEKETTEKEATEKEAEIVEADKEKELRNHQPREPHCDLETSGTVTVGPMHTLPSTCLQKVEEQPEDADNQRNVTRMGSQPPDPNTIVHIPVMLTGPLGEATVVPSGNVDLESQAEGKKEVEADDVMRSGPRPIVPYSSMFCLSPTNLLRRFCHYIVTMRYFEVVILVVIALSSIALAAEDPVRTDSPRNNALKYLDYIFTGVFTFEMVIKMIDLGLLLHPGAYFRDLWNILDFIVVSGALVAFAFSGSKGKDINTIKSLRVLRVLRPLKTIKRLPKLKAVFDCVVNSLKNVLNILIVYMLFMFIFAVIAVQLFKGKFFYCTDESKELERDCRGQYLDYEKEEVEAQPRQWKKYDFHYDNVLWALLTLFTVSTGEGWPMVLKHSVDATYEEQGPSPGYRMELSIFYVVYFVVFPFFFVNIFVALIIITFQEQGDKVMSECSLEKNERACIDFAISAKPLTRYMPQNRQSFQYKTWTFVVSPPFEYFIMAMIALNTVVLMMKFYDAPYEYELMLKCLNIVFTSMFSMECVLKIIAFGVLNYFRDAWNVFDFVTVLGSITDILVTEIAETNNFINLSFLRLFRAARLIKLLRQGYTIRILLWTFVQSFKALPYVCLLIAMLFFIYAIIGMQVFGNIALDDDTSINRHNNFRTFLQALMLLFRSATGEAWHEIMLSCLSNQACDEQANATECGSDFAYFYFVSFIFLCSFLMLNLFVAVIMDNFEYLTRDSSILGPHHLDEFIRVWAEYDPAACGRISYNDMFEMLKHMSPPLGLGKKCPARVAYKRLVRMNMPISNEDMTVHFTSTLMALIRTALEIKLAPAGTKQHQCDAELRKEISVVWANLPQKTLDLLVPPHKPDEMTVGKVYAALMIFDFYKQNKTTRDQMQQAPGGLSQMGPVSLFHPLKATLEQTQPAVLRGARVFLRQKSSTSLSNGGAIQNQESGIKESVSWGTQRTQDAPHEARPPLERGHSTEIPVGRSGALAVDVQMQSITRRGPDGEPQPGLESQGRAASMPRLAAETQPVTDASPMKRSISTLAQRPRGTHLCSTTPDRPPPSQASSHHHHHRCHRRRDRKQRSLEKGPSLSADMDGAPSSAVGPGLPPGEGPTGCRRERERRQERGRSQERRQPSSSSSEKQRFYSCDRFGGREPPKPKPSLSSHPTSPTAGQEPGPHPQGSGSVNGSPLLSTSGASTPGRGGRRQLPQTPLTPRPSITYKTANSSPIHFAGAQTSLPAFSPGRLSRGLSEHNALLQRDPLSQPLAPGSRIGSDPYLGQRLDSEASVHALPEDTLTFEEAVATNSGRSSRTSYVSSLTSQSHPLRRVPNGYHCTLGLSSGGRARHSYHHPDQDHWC
T1 sequence (Q02410 whole entry): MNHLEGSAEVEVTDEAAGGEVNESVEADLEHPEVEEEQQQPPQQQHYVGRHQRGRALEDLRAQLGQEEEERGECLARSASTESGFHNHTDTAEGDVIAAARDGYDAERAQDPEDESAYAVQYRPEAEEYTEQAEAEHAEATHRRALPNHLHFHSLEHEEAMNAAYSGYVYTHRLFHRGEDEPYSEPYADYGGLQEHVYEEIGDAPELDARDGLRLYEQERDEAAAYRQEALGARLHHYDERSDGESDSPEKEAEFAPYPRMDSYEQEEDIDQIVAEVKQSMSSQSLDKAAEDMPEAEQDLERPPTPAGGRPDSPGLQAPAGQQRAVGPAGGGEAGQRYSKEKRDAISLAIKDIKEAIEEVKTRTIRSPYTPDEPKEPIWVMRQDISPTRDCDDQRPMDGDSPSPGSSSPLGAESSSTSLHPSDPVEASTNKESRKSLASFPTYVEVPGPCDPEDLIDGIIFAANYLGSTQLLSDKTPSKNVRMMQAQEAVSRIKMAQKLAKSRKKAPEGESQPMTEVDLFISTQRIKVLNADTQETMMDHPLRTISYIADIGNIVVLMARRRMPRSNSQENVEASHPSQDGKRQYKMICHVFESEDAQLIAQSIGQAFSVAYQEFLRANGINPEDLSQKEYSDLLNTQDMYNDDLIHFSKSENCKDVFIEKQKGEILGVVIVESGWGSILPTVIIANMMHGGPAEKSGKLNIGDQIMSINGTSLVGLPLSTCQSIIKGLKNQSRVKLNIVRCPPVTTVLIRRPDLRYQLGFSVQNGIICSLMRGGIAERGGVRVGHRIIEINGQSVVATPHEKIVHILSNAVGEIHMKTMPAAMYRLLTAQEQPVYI
Sequence of Tyrosine-protein phosphatase non-receptor type 12 (Q05209 whole entry): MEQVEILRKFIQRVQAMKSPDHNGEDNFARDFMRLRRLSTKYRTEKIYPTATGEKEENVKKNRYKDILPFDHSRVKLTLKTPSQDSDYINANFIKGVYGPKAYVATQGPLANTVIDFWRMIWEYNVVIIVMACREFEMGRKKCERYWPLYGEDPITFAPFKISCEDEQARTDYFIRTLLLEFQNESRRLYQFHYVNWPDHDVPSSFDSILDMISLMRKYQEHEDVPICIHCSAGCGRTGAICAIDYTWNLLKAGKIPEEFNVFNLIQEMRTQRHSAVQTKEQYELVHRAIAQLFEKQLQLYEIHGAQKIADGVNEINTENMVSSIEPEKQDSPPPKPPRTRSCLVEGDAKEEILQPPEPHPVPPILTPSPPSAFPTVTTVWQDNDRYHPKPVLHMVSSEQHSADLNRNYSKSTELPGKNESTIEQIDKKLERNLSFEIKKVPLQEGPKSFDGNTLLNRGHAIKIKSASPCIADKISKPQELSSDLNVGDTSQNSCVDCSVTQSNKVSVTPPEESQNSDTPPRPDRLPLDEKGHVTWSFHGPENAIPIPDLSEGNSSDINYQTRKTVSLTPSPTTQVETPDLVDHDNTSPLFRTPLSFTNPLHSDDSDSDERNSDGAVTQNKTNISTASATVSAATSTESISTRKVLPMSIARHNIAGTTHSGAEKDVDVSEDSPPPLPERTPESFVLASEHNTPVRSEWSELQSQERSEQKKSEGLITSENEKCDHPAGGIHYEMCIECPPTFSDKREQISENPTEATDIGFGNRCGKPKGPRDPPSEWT

Structure (SMILES) | CC50 [1] | IC50 [2] | IC50 [3] | IC50 [4] | IC50 [5] | IC50 [6] | IC50 [7] | IC50 [8] | IC50 [9] | IC50 [10] | IC50 [11] | IC50 [12] | IC50 [13] | IC50 [14] | IC50 [15] | IC50 [16] | IC50 [17] | IC50 [18] | IC50 [19]
N#C/C(=C/c1ccc(OCc2ccc(C(=O)O)cc2)c(Br)c1)c1cccc(F)c1 | > 50 µM (active) | > 50 µM (inactive) | 20.5 µM (active) | 14.6 µM (active) | 3.15 µM (active) | 0.481 µM (active) | 1.6 µM (active) | 12.6 µM (active) | 2.66 µM (active) | 15.7 µM (active) | 18.8 µM (active) | 8.8 µM (active) | 2.61 µM (active) | 7.71 µM (active) | 13.7 µM (active) | 1.65 µM (active) | 4.86 µM (active) | – | –
COc1ccc(CN(CCNC(=O)c2ccc(CNS(=O)(=O)Cc3ccccc3)cc2)C(C)C)cc1 | – | – | – | – | – | – | – | – | – | – | – | – | – | – | – | – | – | 1.66 µM (active) | 0.452 µM (active)
